Reference: patent US7906709B2, “Methods for breeding glyphosate resistant plants and compositions thereof” (priority 2006, dated 2011)

How the values were obtained:
S line of rigid ryegrass = assay: Dose response study of plant injury, S line; assay type: in vivo, Lolium rigidum; settings: visual injury 4 WAT, 1× = 1.12 kg ai ha^-1
Method: A dose response study is conducted on the R and S lines of rigid ryegrass. The rates of glyphosate applied varied from 0.125×, 0.25×, 0.5×, 1×, 2×, 4×, 6×, 8×, 10×, to 12×. The sprayed solutions and application procedures are similar to those described previously. Plants are evaluated for visual injury at 4 WAT. Data (4 WAT) from two experiments with 8 replications of each treatment are analyzed by non-linear regression and fitted to a log-logistic model:
[formula] where y is predictive of plant injury (% of control), X50=dose required to obtain 50% injury and b is the slope at X50.

Wild-type Agrobacterium = assay: Growth in M-9 media with glyphosate, wild-type; assay type: cell-based, Agrobacterium tumefaciens; settings: 48 hours
Method: The confirmed plasmid is transformed into Agrobacterium tumefaciens by “freeze thaw technique” using liquid nitrogen. The transformed Agrobacterium is grown in LB plated and maintained 28° C. for 72 h. Some colonies are grown in LB broth for 24 h and tested for the inserted EPSPS gene by PCR. The confirmed Agrobacterium is grown in 50 mL LB broth for 24 h. The Agrobacterium is centrifuged at 5000×g for 10 min, and the pellets are diluted with 2 mL 1.0 M CaCl2. At the same time, a wild-type Agrobacterium is also grown and extracted similar to the transformed Agrobacterium. The Agrobacterium solutions (10 μL) are grown in 50 mL media containing 1×M-9 salt media (SIGMA), 20 mM glucose, 2 mM MgSO4, and glyphosate at 0, 0.25, 0.5, 0.75, 1.0, 1.5, and 2 mM.
The growth (indicated by Optical Density 600 nm) is measured after 48 hours.

## O=C(O)CNCP(=O)(O)O [glyphosate, N-(phosphonomethyl) glycine]
S line of rigid ryegrass
  glyphosate rate for 50% injury: 0.1 ×
Wild-type Agrobacterium; glyphosate 0.25 mM
  Growth, OD 600 nm: 0.236
  Growth, Percent: 37%
Wild-type Agrobacterium; glyphosate 0.50 mM
  Growth, OD 600 nm: 0.005
  Growth, Percent: 0.8%
Wild-type Agrobacterium; glyphosate 0.75 mM
  Growth, OD 600 nm: 0.005
  Growth, Percent: 0.8%
Wild-type Agrobacterium; glyphosate 1.00 mM
  Growth, OD 600 nm: 0.004
  Growth, Percent: 0.8%
Wild-type Agrobacterium; glyphosate 1.50 mM
  Growth, OD 600 nm: 0.004
  Growth, Percent: 0.8%
Wild-type Agrobacterium; glyphosate 2.00 mM
  Growth, OD 600 nm: 0.004
  Growth, Percent: 0.8%
